Reference: US20230250145A1, “COMPOSITIONS AND METHODS FOR THE TREATMENT OF CANCER” (MOMA Therapeutics, Inc., priority 2020, published 2023)

Key:
FANCM protein = test: Western blot of FANCM protein levels; type: cell-based; settings: cells treated with CRISPR RNP sgRNA (FIG. 4B)
Method: Cells were plated for all conditions at a necessary density for analysis (1×10^7 cells per/reaction for nuclear isolation). Following treatment, cells were washed with PBS and trypsinized with TrypLE until loss of adherence. Cells were collected in a 15 mL falcon tube and spun down into a pellet at 1,000 RPM×5 minutes. The supernatant is aspirated and pellets were then placed into downstream protocol (NE-PER cell fractionation kit protocol as provided by vendor). Samples were run on 3-8% Bis-tris gels (Thermo fisher Cat #EA0375PK2) for 45 minutes @ 200 v. […] Membranes were stained overnight at 4 degrees with appropriate antibodies.
FANCM: Anti-FANCM Antibody, clone CV5.1 (MABC545) 1:1000 dilution
Lamin B: Recombinant Anti-Lamin B1 antibody [EPR8985(B)] (ab133741) 1:2000 dilution

[1] = system: FANCM mRNA transcript in UWB1.289; test: qPCR of FANCM mRNA expression after doxycycline induced shRNA; type: cell-based; settings: three days of doxycycline treatment
From the text: All shRNAs were cloned into pLKO-tet-on vector, packaged into lentivirus and titered for each cell line for an MOI <0.7.

Row | Substance | FANCM protein expression (Western blot) (FANCM protein) | FANCM mRNA transcripts (qPCR) [1]
1 | FANCM sgRNA #4: sgRNA targeting the FANCM locus, SEQ ID NO: 70, AAAGACCTTTATTGCCGCCG (synthetic chemically modified sgRNA (Synthego EZ kit), pattern not given here) | loss of FANCM protein expression | –
2 | shRNA #1307: doxycycline-inducible shRNA targeting FANCM, SEQ ID NO: 77, GACTTCATGAAACTCTATAAT | – | loss of FANCM mRNA transcripts
3 | shRNA #1858: doxycycline-inducible shRNA targeting FANCM, SEQ ID NO: 78, AGGACGAGAGGAACGTATTTA | – | loss of FANCM mRNA transcripts
4 | FANCM sgRNA #3: sgRNA targeting the FANCM locus, SEQ ID NO: 69, CATGACCACGGCGGCAATAA (synthetic chemically modified sgRNA (Synthego EZ kit), pattern not given here) | loss of FANCM protein expression | –
